Article PMC2888647 (Journal of medicinal chemistry, 2009)

Tests used:
[1] = estimated; cited from earlier work
recombinant human sEH = biological target: T1, recombinant human sEH (Homo sapiens, UniProt P34913); type: biochemical; conditions: relative to compound 1
T1 sequence (P34913 1-555): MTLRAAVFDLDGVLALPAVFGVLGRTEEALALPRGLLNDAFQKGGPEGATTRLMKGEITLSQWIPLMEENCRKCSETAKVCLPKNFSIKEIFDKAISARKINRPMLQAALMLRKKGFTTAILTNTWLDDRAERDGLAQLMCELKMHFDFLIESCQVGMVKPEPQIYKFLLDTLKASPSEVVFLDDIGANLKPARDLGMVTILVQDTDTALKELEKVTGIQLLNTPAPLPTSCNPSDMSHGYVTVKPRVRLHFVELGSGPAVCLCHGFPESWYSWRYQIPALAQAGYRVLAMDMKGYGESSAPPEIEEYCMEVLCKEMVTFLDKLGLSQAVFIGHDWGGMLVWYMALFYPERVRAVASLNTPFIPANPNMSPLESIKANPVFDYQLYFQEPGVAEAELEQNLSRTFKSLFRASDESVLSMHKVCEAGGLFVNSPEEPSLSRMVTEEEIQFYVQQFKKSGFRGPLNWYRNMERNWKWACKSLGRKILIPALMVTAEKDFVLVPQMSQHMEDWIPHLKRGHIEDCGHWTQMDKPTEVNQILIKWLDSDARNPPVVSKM

Row | Structure (SMILES) | in vivo half-life [1] | decline of sEHi, factor with respect to 1 (recombinant human sEH)
1 | CCCCC[C@@H]1O[C@@H]1C/C=C\C/C=C\C/C=C\CCCC(=O)O [14,15-EET, cis-14,15-epoxyeicosa-5(Z),8(Z),11(Z)-trienoic acid] | a few seconds to minutes | –
2 | CCCCCNC(=S)NCCCC/C=C\CCCCCCC(=O)O [Compd 5, 13-(3-n-Pentylthioureido)tridec-8(Z)-enoic acid] | – | 16
